# Source: patent US9976141B2, “Compositions and methods for inhibiting gene expression of Hif2alpha” (Arrowhead Madison Inc., priority 2015, dated 2018)
# System: human (tumor) Hif2α (EPAS1) mRNA
# Assay: Hif2α knockdown in orthotopic RCC tumor bearing mice, single injection of RNAi trigger-delivery polymer conjugate, RT-qPCR (Table 7)
# Type: in vivo
# Conditions: single tail vein injection, relative to isotonic glucose
# Experimental: A pCR3.1 expression vector expressing the reporter gene secreted alkaline phosphatase (SEAP) under the CMV promoter was prepared by directional cloning of the SEAP coding sequence PCR amplified from Clontech's pSEAP2-basic vector. Convenient restriction sites were added onto primers used to amplify the SEAP coding sequence for cloning into the pCR3.1 vector (Invitrogen). The resultant construct pCR3-SEAP was used to create a SEAP-expressing A498 ccRCC cell line. Briefly, pCR3-SEAP plasmid was transfected into A498 ccRCC cells by electroporation following manufacturer's recommendation. Stable transfectants were selected by G418 resistance. Selected A498-SEAP clones were evaluated for SEAP expression and integration stability.
# Female athymic nude mice were anesthetized with ˜3% isoflourane and placed in the right lateral decubitus position. A small, 0.5-1 cm, longitudinally abdominal incision in the left flank was made. Using a moist cotton swab, the left kidney was lifted out of the peritoneum and gently stabilized. Just before injection, a 1.0 ml syringe was filled with the cell/Matrigel mixture and a 27 gauge needle catheter was attached to the syringe tip. The filled syringe was then attached to a syringe pump (Harvard Apparatus, model PHD2000) and primed to remove air. The tip of a 27-gauge needle catheter attached to a syringe was inserted just below the renal capsule near the caudal pole and the tip of the needle was then carefully advanced cranially along the capsule 3-4 mm. A 10 μl aliquot of 2:1 (vol:vol) cell/matrigel mixture containing about 300,000 cells was slowly injected into the kidney parenchyma using a syringe pump. The needle was left in the kidney for 15-20 seconds to ensure the injection was complete. The needle was then removed from the kidney and a cotton swab was placed over the injection site for 30 seconds to prevent leakage of the cells or bleeding. The kidney was then gently placed back into the abdomen and the abdominal wall was closed. Serum was collected every 7-14 days after implantation to monitor tumor growth using a commercial SEAP assay kit. For most studies, tumor mice were used 5-6 weeks after implantation, when tumor measurements were typically around 4-8 mm.
# RGD targeted HiF2α-RNAi trigger delivery conjugates. Delivery polymers were modified using RGD-PEG-HyNic, RGD-PEG-ACit-PNP, or RDG-PEG-FCitFP-TFP and PEG-dipeptide modifying agents. The indicated amount of polymer 126 or 100A polymer was modified with 8×PEG12-ACit-PABC-PNP/0.5× aldehyde-PEG24-FCit-PABC-PNP (with RGD mimic #1-PEG-HyNic using protocol #1) and the indicated amount of the indicated Hif2α RNAi trigger. Polymer 064 was modified according to protocol 7. Kidney RCC tumor-bearing mice were generated as described and treated with a single tail vein injection of isotonic glucose (G1) or the indicated Hif2α RNAi trigger-delivery polymer conjugate. Mice were euthanized at the indicated time after injection and total RNA was prepared from kidney tumor using Trizol reagent following manufacturer's recommendation. Relative HiF2α mRNA levels were determined by RT-qPCR as described below and compared to mice treated with delivery buffer (isotonic glucose) only.
# In preparation for quantitative PCR, total RNA was isolated from tissue samples homogenized in TriReagent (Molecular Research Center, Cincinnati, Ohio) following the manufacturer's protocol. Approximately 500 ng RNA was reverse-transcribed using the High Capacity cDNA Reverse Transcription Kit (Life Technologies). For human (tumor) Hif2α (EPAS1) expression, pre-manufactured TaqMan gene expression assays for human Hif2α (Catalog #4331182) and CycA (PPIA) Catalog #: 4326316E) were used in biplex reactions in triplicate using TaqMan Gene Expression Master Mix (Life Technologies) or VeriQuest Probe Master Mix (Affymetrix). […]
# [1] = RNAi trigger 80 μg, polymer 126 400 μg
# [2] = RNAi trigger 50 μg, polymer 064 125 μg
substance,measurement,setting,value
"AD01023 (antisense TCUAGCAACAAAACCUUAATT; sense UUAAGGUUUUGUUGCUAGAT; Hif2alpha RNAi agent antisense strand; modified_base 2,4,8,10,12,14,16,18 /mod_base = “2′-deoxy-2′-fluoro corresponding nucleoside”; modified_base 3,5,7,9,11,13,15,17,19 /mod_base = “2′-O-methyl corresponding nucleoside”; modified_base 6 /mod_base = “2′-3′ seco corresponding nucleotide”; modified_base 21 /mod_base = “5′-phosphorothioate corresponding nucleotide”; Hif2alpha RNAi agent sense strand; modified_base 1,3,5,7,9,11,13,15,17,19 /mod_base = “2′-deoxy-2′-fluoro corresponding nucleoside”; modified_base 2,4,6,8,10,12,14,16,18 /mod_base = “2′-O-methyl corresponding nucleoside”; modified_b)",Relative Expression day 4 (Hif2α mRNA in kidney tumor),[1],0.93
"AD01656 (antisense TUUCAUGAAAUCGUUACGUTT; sense ACGUAACGAUUUCAUGAAA; Hif2alpha RNAi agent antisense strand; modified_base 2,4,6,8,10,12,14,15,18 /mod_base = “2′-deoxy-2′-fluoro corresponding nucleoside”; modified_base 3,5,7,9,11,13,16,17,19 /mod_base = “2′-O-methyl corresponding nucleoside”; modified_base 2,21 /mod_base = “5′-phosphorothioate corresponding nucleotide”; Hif2alpha RNAi agent sense strand; modified_base 1,3,4,7,9,11,13,15,17,19 /mod_base = “2′-deoxy-2′-fluoro corresponding nucleoside”; modified_base 2,5,6,8,10,12,14,16,18 /mod_base = “2′-O-methyl corresponding nucleoside”; modified_base 2 /mod_base = “5′-phosphorothioate corresponding nucleotide)",Relative Expression day 4 (Hif2α mRNA in kidney tumor),"RNAi trigger 100 μg, polymer 100A 250 μg",0.184
"AD03266 (antisense UUUCAUGAAAUCGUUACGUUG; sense ACGUAACGAUUUCAUGAAAT; Hif2alpha RNAi agent antisense strand; modified_base 2,4,6,8,14 /mod_base = “2′-deoxy-2′-fluoro corresponding nucleoside”; modified_base 1,3,5,7,9,10,11,12,13,15,16,17,18,19,20,21 /mod_base = “2′-O-methyl corresponding nucleoside”; modified_base 2,3,20,21 /mod_base = “5′-phosphorothioate corresponding nucleotide”; Hif2alpha RNAi agent sense strand; modified_base 7,8,9 /mod_base = “2′-deoxy-2′-fluoro corresponding nucleoside”; modified_base 1,2,3,4,5,6,10,11,12,13,14,15,16,17,18,19 /mod_base = “2′-O-methyl corresponding nucleoside”; modified_base 20 /mod_base = “3′-3′-linked nucleotide”; modi)",Relative Expression day 4 (Hif2α mRNA in kidney tumor),[2],0.408
"AD01289 (antisense TUUCAUGAAAUCGUUACGUTT; sense ACGUAACGAUUUCAUGAAAT; Hif2alpha RNAi agent antisense strand; modified_base 2,4,6,8,10,12,14,16,18 /mod_base = “2′-deoxy-2′-fluoro corresponding nucleoside”; modified_base 3,5,7,9,11,13,15,17,19 /mod_base = “2′-O-methyl corresponding nucleoside”; modified_base 21 /mod_base = “5′-phosphorothioate corresponding nucleotide”; Hif2alpha RNAi agent sense strand; modified_base 1,3,5,6,7,9,11,13,15,17,19 /mod_base = “2′-deoxy-2′-fluoro corresponding nucleoside”; modified_base 2,4,8,10,12,14,16,18 /mod_base = “2′-O-methyl corresponding nucleoside”; modified_base 20 /mod_base = “3′-3′-linked nucleotide”; modified_base 1 /mo)",Relative Expression day 4 (Hif2α mRNA in kidney tumor),"RNAi trigger 115 μg, polymer 100A 375 μg",0.28
"AD03260 (antisense AUUCAUGAAAUCGUUACGUUG; sense ACGUAACGAUUUCAUGAATT; Hif2alpha RNAi agent antisense strand; modified_base 2,8,10,14 /mod_base = “2′-deoxy-2′-fluoro corresponding nucleoside”; modified_base 1,3,4,5,6,7,9,11,12,13,15,16,17,18,19,20,21 /mod_base = “2′-O-methyl corresponding nucleoside”; modified_base 2,3,20,21 /mod_base = “5′-phosphorothioate corresponding nucleotide”; Hif2alpha RNAi agent sense strand; modified_base 7,8,9 /mod_base = “2′-deoxy-2′-fluoro corresponding nucleoside”; modified_base 1,2,3,4,5,6,10,11,12,13,14,15,16,17 /mod_base = “2′-O-methyl corresponding nucleoside”; modified_base 20 /mod_base = “3′-3′-linked nucleotide”; modified_b)",Relative Expression day 4 (Hif2α mRNA in kidney tumor),[2],0.175
"AD01029 (antisense TUUCAUGAAAUCGUUACGUTT; sense ACGUAACGAUUUCAUGAAAT; Hif2alpha RNAi agent antisense strand; modified_base 2,4,8,10,12,14,16,18 /mod_base = “2′-deoxy-2′-fluoro corresponding nucleoside”; modified_base 3,5,7,9,11,13,15,17,19 /mod_base = “2′-O-methyl corresponding nucleoside”; modified_base 6 /mod_base = “2′-3′ seco corresponding nucleotide”; modified_base 21 /mod_base = “5′-phosphorothioate corresponding nucleotide”; Hif2alpha RNAi agent sense strand; modified_base 1,3,5,7,9,11,13,15,17,19 /mod_base = “2′-deoxy-2′-fluoro corresponding nucleoside”; modified_base 2,4,6,8,10,12,14,16,18 /mod_base = “2′-O-methyl corresponding nucleoside”; modified_b)",Relative Expression day 4 (Hif2α mRNA in kidney tumor),[1],0.94
"AD01292 (antisense TUUCAUGAAAUCGUUACGUUGGC; sense CAACGUAACGAUUUCAUGAAA; Hif2alpha RNAi agent antisense strand; modified_base 2,4,6,8,10,14,16,18,20 /mod_base = “2′-deoxy-2′-fluoro corresponding nucleoside”; modified_base 3,5,7,9,11,12,13,15,17,19,21,22,23 /mod_base = “2′-O-methyl corresponding nucleoside”; modified_base 2,3,22,23 /mod_base = “5′-phosphorothioate corresponding nucleotide”; Hif2alpha RNAi agent sense strand; modified_base 3,5,7,9,10,11,13,15,17,19,21 /mod_base = “2′-deoxy-2′-fluoro corresponding nucleoside”; modified_base 2,4,6,8,12,14,16,18,20 /mod_base = “2′-O-methyl corresponding nucleoside”; modified_base 1 /mod_base = “2′-3′ seco correspondin)",Relative Expression day 4 (Hif2α mRNA in kidney tumor),[1],0.27
